In experiment [1] the target is T1, truncated form of human Choline kinase α1 that includes residues 75-457 (Homo sapiens, UniProt P35790).
T1 construct: made in house
Kind of experiment: Kinase Assay, coupled (ATP regeneration) LDH/PK assay, NADH absorbance. Type of experiment: biochemical. The protocol: Absorbance of NADH (340 nm) was measured over 30 min using a SpectraMax M5 (Molecular Devices). Initial reaction velocity (ΔA340/Δt) was calculated and plotted as a function of inhibitor concentration in a 2-fold dilution series. IC50 values were obtained by fitting the relative velocities to a dose-response model.

For the next experiment, the target named is T2, ChoKα protein (Homo sapiens, UniProt P35790).
T2 construct: made in house
T2 sequence (P35790 75-457): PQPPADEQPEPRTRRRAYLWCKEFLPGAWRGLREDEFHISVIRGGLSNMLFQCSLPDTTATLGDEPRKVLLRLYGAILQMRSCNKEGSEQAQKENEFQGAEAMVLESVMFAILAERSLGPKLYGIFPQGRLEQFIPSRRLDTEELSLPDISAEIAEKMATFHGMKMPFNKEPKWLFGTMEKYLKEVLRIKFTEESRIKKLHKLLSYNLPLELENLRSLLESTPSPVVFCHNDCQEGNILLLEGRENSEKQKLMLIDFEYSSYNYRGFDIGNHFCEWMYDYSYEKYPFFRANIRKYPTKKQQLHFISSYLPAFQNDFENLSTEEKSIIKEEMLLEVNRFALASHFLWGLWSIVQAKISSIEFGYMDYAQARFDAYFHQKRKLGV
Kind of experiment: Binding affinity by surface plasmon resonance (SensiQ Pioneer, FastStep). The procedure:
KD may be measured using surface plasmon resonance (BIAcore®) technology, see, e.g., Panayotou et al, Mol. Cell. […] ChoKα protein was immobilized by standard amine coupling methods on a COOH5 sensor chip installed in a SensiQ Pioneer system. Sensograms were measured using the FastStep™ screen method with an upper concentration of 500 nM. Kinetics and affinity were obtained from fits using a 1:1 binding model.

The test system of another experiment is cancer cell lines. The experiment is described as follows: Cellular Growth Inhibition Assay (CyQuant Cell Proliferation Assay Kit). Type of experiment: cell-based. The protocol: Cellular Growth Inhibition AssayVehicle or compound treated cells were assessed for cell growth after 72 hours of treatment using the CyQuant® Cell Proliferation Assay Kit (Life Technologies, Grand Island, N.Y.). […] Data are shown as mean (±SD) from ≧2 separate experiments.

The mark [2] stands for this setting: Examples not designated with an asterisk, footnote prints version 1 of the Kinase Assay, read-out: IC50.
The mark [3] stands for this setting: SPR, 1:1 binding model, upper concentration 500 nM, read-out: Kd.
Setting [4] is: 72 hours of treatment, cell line not named, read-out: GI50.
The mark [5] stands for this setting: Examples designated with an asterisk (*): version 1 of the Kinase Assay, 200 nM enzyme, read-out: IC50.

Like-named read-outs stand apart in the source and are kept apart here.

T1 sequence (P35790 75-457): as above

For orientation: IC50 means the concentration needed to halve the response being measured. The term Kd denotes the concentration at which binding is half-saturated. By GI50 is commonly meant the concentration giving 50% growth inhibition. Consider `CN1CCCN(Cc2ccc(-c3ccc(CN4CCCN(C)CC4)cc3C#N)cc2)CC1` [Example 14, 4,4′-bis((4-methyl-1,4-diazepan-1-yl)methyl)-[1,1′-biphenyl]-2-carbonitrile], for which the IC50 in experiment [1] is below 100 nM. The compound further displayed a Kd on ChoKα protein below 50 nM. Also, in the experiment with cancer cell lines (72 h), the GI50 is below 5 µM.

In the case of `CN1CCCN(Cc2ccc(-c3ccc(CN4CCCN(C)CC4)c(F)c3)cc2)CC1` [Example 42, 4,4′-((3-fluoro-[1,1′-biphenyl]-4,4′-diyl)bis(methylene))bis(1-methyl-1,4-diazepane)], in experiment [1] (setting [2]), the IC50 was below 200 nM. Besides, the Kd at ChoKα protein (setting [3]) is below 200 nM. Also, in the experiment on cancer cell lines (setting [4]), the GI50 is below 5 µM.

Regarding `CN1CCCN(Cc2ccc(-c3ccc(CN4CCCN(C)CC4)c(Cl)c3)cc2)CC1` [Example 43, 4,4′-((3-chloro-[1,1′-biphenyl]-4,4′-diyl)bis(methylene))bis(1-methyl-1,4-diazepane)], the IC50 in experiment [1] was below 200 nM. The compound further yielded a Kd at ChoKα protein below 200 nM. This compound yielded a GI50 in the experiment with cancer cell lines (72 h) below 5 µM.

For `COc1ccc(-c2cc(C(=O)N3CCCN(C)CC3)ccc2-c2ccc(CN3CCCN(C)CC3)cc2C#N)cc1` [Example 66, 4″-methoxy-4-((4-methyl-1,4-diazepan-1-yl)methyl)-4′-(4-methyl-1,4-diazepane-1-carbonyl)-[1,1′:2′,1″-terphenyl]-2-carbonitrile], the IC50 in experiment [1] (setting [2]) was below 100 nM. Besides, on ChoKα protein (setting [3]), the Kd is below 50 nM. Also, the GI50 with cancer cell lines (setting [4]) was below 20 µM.

On to `CNS(=O)(=O)c1ccc(-c2ccc(CN3CCCN(C)CC3)cc2C#N)cc1` [Example 86, 2′-cyano-N-methyl-4′-((4-methyl-1,4-diazepan-1-yl)methyl)-[1,1′-biphenyl]-4-sulfonamide], for which the IC50 in experiment [1] (setting [2]) is below 100 nM. Also, the Kd at ChoKα protein (setting [3]) is below 50 nM. Also, the GI50 with cancer cell lines (setting [4]) was below 5 µM.

Turning to `CN1CCCN(Cc2ccc(-c3ccc(C(=O)NC4CC4)cc3)c(C#N)c2)CC1` [Example 32, 2′-cyano-N-cyclopropyl-4′-((4-methyl-1,4-diazepan-1-yl)methyl)-[1,1′-biphenyl]-4-carboxamide], the IC50 in experiment [1] (setting [2]) is below 200 nM. For the same compound, on ChoKα protein (setting [3]), the Kd is below 60000 nM. In the experiment on cancer cell lines (setting [4]), the GI50 is below 20 µM.

On to `CN1CCCN(Cc2ccc(-c3ccc4[nH]ncc4c3)c(C#N)c2)CC1` [Example 92, 2-(1H-indazol-5-yl)-5-((4-methyl-1,4-diazepan-1-yl)methyl)benzonitrile], for which, in experiment [1] (setting [2]), the IC50 was below 100 nM. At ChoKα protein (setting [3]), the Kd is below 50 nM. Also, in the experiment on cancer cell lines (setting [4]), the GI50 was above 20 µM.

`CN1CCCN(Cc2ccc(-c3cc(F)c(CN4CCCN(C)CC4)c(F)c3)cc2)CC1` [Example 40, 4,4′-((3,5-difluoro-[1,1′-biphenyl]-4,4′-diyl)bis(methylene))bis(1-methyl-1,4-diazepane)] came in with an IC50 in experiment [1] below 200 nM. Further, at ChoKα protein, the Kd is below 60000 nM. The GI50 in the experiment on cancer cell lines (72 h) is below 20 µM.

Turning to `CN1CCCN(Cc2ccc(-c3ccc(C(=O)N4CCCN(C)CC4)cc3-c3cccc([N+](=O)[O-])c3)c(C#N)c2)CC1` [Example 77, 4-((4-methyl-1,4-diazepan-1-yl)methyl)-4′-(4-methyl-1,4-diazepane-1-carbonyl)-3″-nitro-[1,1′:2′,1″-terphenyl]-2-carbonitrile], in experiment [1] (setting [2]), the IC50 is below 100 nM. Moreover, the Kd at ChoKα protein (setting [3]) was below 50 nM.

For `CN1CCCN(Cc2ccc(-c3ccccc3)c(F)c2)CC1` [Example 134, 1-((2-fluoro-[1,1′-biphenyl]-4-yl)methyl)-4-methyl-1,4-diazepane], the IC50 in experiment [1] (setting [5]) was below 200 nM. In addition, the Kd on ChoKα protein (setting [3]) is below 60000 nM.

With `CN1CCCN(Cc2ccc(CNc3ccc(N4CCN(C)CC4)cc3)cc2)CC1` [Example 153, N-(4-((4-methyl-1,4-diazepan-1-yl)methyl)benzyl)-4-(4-methylpiperazin-1-yl)aniline], in experiment [1] (setting [5]), the IC50 was below 200 nM. Further, the Kd on ChoKα protein (setting [3]) is below 60000 nM.

`CCOc1ccc(-c2cc(C(=O)N3CCCN(C)CC3)ccc2-c2ccc(CN3CCCN(C)CC3)cc2C#N)cc1` [Example 79, 4″-ethoxy-4-((4-methyl-1,4-diazepan-1-yl)methyl)-4′-(4-methyl-1,4-diazepane-1-carbonyl)-[1,1′1:2′,1″-terphenyl]-2-carbonitrile]: in experiment [1] (setting [2]), the IC50 was below 100 nM. At ChoKα protein (setting [3]), the Kd is below 50 nM.

Take `CN1CCCN(Cc2ccc(-c3ccc(CN4CCOCC4)cc3)c(C#N)c2)CC1` [Example 9, 4-((4-methyl-1,4-diazepan-1-yl)methyl)-4′-(morpholinomethyl)-[1,1′-biphenyl]-2-carbonitrile]: the IC50 in experiment [1] (setting [2]) is below 200 nM. In addition, at ChoKα protein (setting [3]), the Kd was below 100 nM.

Regarding `CN(C)CCCNC(=O)c1ccc(-c2ccc(CN3CCCN(C)CC3)cc2C#N)cc1` [Example 30, 2′-cyano-N-(3-(dimethylamino)propyl)-4′-((4-methyl-1,4-diazepan-1-yl)methyl)-[1,1′-biphenyl]-4-carboxamide], the IC50 in experiment [1] (setting [2]) was below 100 nM. Further, on ChoKα protein (setting [3]), the Kd is below 50 nM.

Take `CN1CCCN(Cc2ccc(-c3ccc(S(=O)(=O)N4CCN(C)CC4)cc3)c(C#N)c2)CC1` [Example 84, 4-((4-methyl-1,4-diazepan-1-yl)methyl)-4′-((4-methylpiperazin-1-yl)sulfonyl)-[1,1′-biphenyl]-2-carbonitrile]: the IC50 in experiment [1] (setting [2]) is below 100 nM. Also, the Kd at ChoKα protein (setting [3]) is below 100 nM.

Take `CN1CCCN(Cc2ccc(CNc3cccc(C(N)=O)c3)cc2)CC1` [Example 152, 3-((4-((4-methyl-1,4-diazepan-1-yl)methyl)benzyl)amino)benzamide]: the IC50 in experiment [1] (setting [5]) is below 200 nM. The Kd on ChoKα protein (setting [3]) was below 60000 nM.

With `CN1CCCN(Cc2ccc(-c3ccc(CN)cc3)c(C#N)c2)CC1` [Example 16, 4′-(aminomethyl)-4-((4-methyl-1,4-diazepan-1-yl)methyl)-[1,1′-biphenyl]-2-carbonitrile], in experiment [1] (setting [2]), the IC50 is below 200 nM. Also, the Kd on ChoKα protein (setting [3]) is below 200 nM.

For the compound `CN1CCCN(Cc2ccc(-c3ccc(S(=O)(=O)N4CCOCC4)cc3)c(C#N)c2)CC1` [Example 88, 4-((4-methyl-1,4-diazepan-1-yl)methyl)-4′-(morpholinosulfonyl)-[1,1′-biphenyl]-2-carbonitrile], the IC50 in experiment [1] (setting [2]) was below 200 nM. In addition, the Kd at ChoKα protein (setting [3]) is below 200 nM.

Compound `COc1ccc(-c2ccc(CN3CCCN(C)CC3)cc2)cc1` [Example 128, 1-((4′-methoxy-[1,1′-biphenyl]-4-yl)methyl)-4-methyl-1,4-diazepane] displayed an IC50 in experiment [1] below 200 nM. The compound also came in with a Kd at ChoKα protein below 60000 nM.

Regarding `CN1CCCN(Cc2ccc(-c3ccc(C(=O)N4CCCN(C)CC4)cc3N)c(C#N)c2)CC1` [Example 64, 2′-amino-4-((4-methyl-1,4-diazepan-1-yl)methyl)-4′-(4-methyl-1,4-diazepane-1-carbonyl)-[1,1-biphenyl]-2-carbonitrile], in experiment [1] (setting [2]), the IC50 is below 200 nM. The Kd on ChoKα protein (setting [3]) was below 60000 nM.

Consider `CN1CCCN(Cc2ccc(-n3cncn3)cc2)CC1` [Example 139, 1-(4-(1H-1,2,4-triazol-1-yl)benzyl)-4-methyl-1,4-diazepane], for which the IC50 in experiment [1] (setting [5]) is below 500 nM. The Kd on ChoKα protein (setting [3]) is below 60000 nM.

For the compound `CN1CCCN(Cc2ccc(-c3ccc(C(=O)N4CCCN(C)CC4)cc3-c3cn[nH]c3)c(C#N)c2)CC1` [Example 71, 4-((4-methyl-1,4-diazepan-1-yl)methyl)-4′-(4-methyl-1,4-diazepane-1-carbonyl)-2′-(1H-pyrazol-4-yl)-[1,1′-biphenyl]-2-carbonitrile], the IC50 in experiment [1] (setting [2]) is below 100 nM. Moreover, the Kd at ChoKα protein (setting [3]) was below 100 nM.

With `CN1CCCN(Cc2ccc(-c3ccc(CN4CCCN(C)CC4)cc3[N+](=O)[O-])cc2)CC1` [Example 57, 4,4′-((2-nitro-[1,1′-biphenyl]-4,4′-diyl)bis(methylene))bis(1-methyl-1,4-diazepane)], the IC50 in experiment [1] (setting [2]) was below 100 nM. In addition, the Kd at ChoKα protein (setting [3]) is below 100 nM.

In the case of `CN1CCCN(Cc2ccc(-c3ccc(CN4CCCC(O)C4)cc3)c(C#N)c2)CC1` (stereo not shown) [Example 1, 4′-((3-hydroxypiperidin-1-yl)methyl)-4-((4-methyl-1,4-diazepan-1-yl)methyl)-[1,1′-biphenyl]-2-carbonitrile], in experiment [1] (setting [2]), the IC50 is below 100 nM. On ChoKα protein (setting [3]), the Kd is below 100 nM.

Regarding `CN1CCCN(Cc2ccc(-c3ccc(C(=O)NN)cc3)c(C#N)c2)CC1` [Example 91, 2′-cyano-4′-((4-methyl-1,4-diazepan-1-yl)methyl)-[1,1′-biphenyl]-4-carbohydrazide], the IC50 in experiment [1] (setting [2]) was below 200 nM. The Kd at ChoKα protein (setting [3]) was below 200 nM.

As for `CCN(CC)C1CCN(Cc2ccc(-c3ccc(CN4CCCN(C)CC4)cc3C#N)cc2)CC1` [Example 15, 4′-((4-(diethylamino)piperidin-1-yl)methyl)-4-((4-methyl-1,4-diazepan-1-yl)methyl)-[1,1′-biphenyl]-2-carbonitrile], the IC50 in experiment [1] (setting [2]) is below 100 nM. Besides, the Kd at ChoKα protein (setting [3]) was below 50 nM.

For the compound `CN1CCCN(Cc2ccc(CN3CCC(N4CCCC4)CC3)cc2)CC1` [Example 148, 1-methyl-4-(4-((4-(pyrrolidin-1-yl)piperidin-1-yl)methyl)benzyl)-1,4-diazepane], the IC50 in experiment [1] (setting [5]) is below 200 nM. The Kd on ChoKα protein (setting [3]) is below 60000 nM.

On to `CNS(=O)(=O)c1ccc(-c2ccc(CN3CCCN(C)CC3)cc2C#N)c(C)c1` [Example 97, 2′-cyano-N,2-dimethyl-4′-((4-methyl-1,4-diazepan-1-yl)methyl)-[1,1′-biphenyl]-4-sulfonamide], for which the IC50 in experiment [1] (setting [2]) is below 200 nM. For the same compound, the Kd at ChoKα protein (setting [3]) was below 200 nM.

For the origin of these results see patent publication US9834521B2, “Choline kinase inhibitors” (ARIAD Pharmaceuticals, Inc., priority 2013, dated 2017).
